# In publication PMC12775434, “Ultra-large virtual screening unveils potent agonists of the neuromodulatory orphan receptor GPR139” (Nature Communications, 2025):
# Where “and” joins values, the source holds several entries; their conditions need not be identical. Equal entries are not always repeated. Where two headings read alike, the source gives them in different places.
# Target: T1, GPR139 (Homo sapiens, UniProt Q6DWJ6)
# T1 sequence (Q6DWJ6 1-353): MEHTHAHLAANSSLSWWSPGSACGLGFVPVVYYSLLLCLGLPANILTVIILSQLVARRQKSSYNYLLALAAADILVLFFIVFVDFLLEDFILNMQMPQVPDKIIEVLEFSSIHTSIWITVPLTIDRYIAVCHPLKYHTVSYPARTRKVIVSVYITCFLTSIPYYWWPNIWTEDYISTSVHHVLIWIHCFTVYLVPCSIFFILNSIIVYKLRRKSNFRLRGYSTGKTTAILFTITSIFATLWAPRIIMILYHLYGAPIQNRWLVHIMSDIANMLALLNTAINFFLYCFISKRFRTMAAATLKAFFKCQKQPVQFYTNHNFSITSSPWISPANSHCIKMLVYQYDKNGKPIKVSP
# Assay: Inositol monophosphate (IP1) accumulation assay, GPR139-CHOk1
# Assay type: cell-based
# Procedure: Primary screening and pharmacological characterization of compounds were performed using a CHO-K1 cell line that stably expresses human GPR139 (GPR139-CHOk1). The GPR139-CHOk1 cell line was kindly provided by H. Lundbeck A/S, Denmark[24]. GPR139-CHOk1 cells were grown in Ham’s F-12 Kaighn’s Modification Medium (ThermoFisher #21127030) supplemented with 10% dialyzed fetal bovine serum (US origin, ThermoFisher #26400044), 100 units/mL Penicillin-Streptomycin (ThermoFisher #15140122), and 1 mg/mL Geneticin (ThermoFisher #11811031). […] M1R-CHOk1 cells were purchased from The Missouri S&T cDNA Resource Center (#CEM100TN00). M1R-CHOk1 cells were grown in Ham’s F12 Medium (ThermoFisher #21765029) supplemented with 10% fetal bovine serum (Brazilian origin, ThermoFisher #10270106), 100 units/mL Penicillin-Streptomycin, and 0.25 mg/mL Geneticin. HEK293A cells transiently transfected with GPR139 were used for additional pharmacological assessment of signaling pathways activated by GPR139. HEK239A cells were generously provided by Dr. Asuka Inoue, Tohoku University, Japan. HEK293A cells were grown in Dulbecco’s Modified Eagle Medium (ThermoFisher #31966047) supplemented with 10% dialyzed fetal bovine serum and 100 units/mL Penicillin-Streptomycin. Cell lines were maintained at 37 °C in humidified incubator equilibrated with 5% CO2.
# HTRF IP-One Gq kit (Cisbio #62IPAPEC) was used to detect the accumulation of inositol monophosphate (IP1) as described in the work by Shehata et al.[26]. GPR139-CHOk1 cells were dissociated and resuspended in HEPES buffer. 50,000 cells in 5 µL and 5 µL test compounds diluted from DMSO stocks (final DMSO concentration of maximally 0.3%) in HEPES buffer supplemented with 40 mM LiCl were mixed in each well of white 384-well OptiPlate (PerkinElmer #6007290). The cells were incubated for 1 h at 37 °C. Then, 10 µL detection reagent composed of 2.5% Eu3 + -anti-IP1 antibody and 2.5% IP1-d2 diluted in lysis buffer was added, and the cells were incubated for 1 h at room temperature before measurements. Measurements were performed on EnVision Multimode Plate Reader (PerkinElmer) using excitation light of 340 nm and emission light of 615 nm and 665 nm. The time resolved-fluorescence resonance energy transfer (TR-FRET) 665 nm/615 nm ratio, which is inversely proportional to the IP1 accumulation, was used to determine the IP1 response.
# Pharmacological data and statistical analyses were performed in GraphPad Prism v9–10 (Graphpad Software Inc., San Diego, CA), which are also specifically described in the figure and table legends. The functional assay responses were normalized to buffer (0%) and Lundbeck Cmp 1a or JNJ-63533054 (100%), for Ca^2+ and IP1 experiments in the GPR139-CHOk1 stable cell line or Ca^2+, G protein activation, and arrestin-3 recruitment experiments in the HEK293A cells transiently transfected with GPR139, respectively. Data are from at least three independent experiments, unless stated otherwise. Concentration-response curves were fitted applying non-linear regression using the log (agonist) versus response model with variable slope. ANOVA was applied for comparing results and determining statistical significance. Comparison of responses to the reference was performed using one-way ANOVA with Dunnett’s multiple comparisons test at significance threshold of p < 0.05. Comparison of responses across assays and ligands was performed using two-way ANOVA with Tukey’s multiple comparisons test at a significance threshold of p < 0.05.
# [1] = Supplementary Table 2, mean ± SEM, read-out: pEC50 IP1 (converted)
# [2] = log [Compound] M -4.5, replicate experiments
# [3] = log [Compound] M -5.0, replicate experiments
# [4] = log [Compound] M -5.5, replicate experiments
# [5] = log [Compound] M -6.0, replicate experiments
# [6] = log [Compound] M -6.5, replicate experiments
# [7] = log [Compound] M -7.0, replicate experiments
# [8] = log [Compound] M -7.5, replicate experiments
# [9] = log [Compound] M -8.0, replicate experiments
# [10] = log [compound] M -4.5, individual replicates
# [11] = log [compound] M -5.0, individual replicates
# [12] = log [compound] M -5.5, individual replicates
# [13] = log [compound] M -6.0, individual replicates
# [14] = log [compound] M -6.5, individual replicates
# [15] = log [compound] M -7.0, individual replicates
# [16] = log [compound] M -7.5, individual replicates
# [17] = log [compound] M -8.0, individual replicates
# [18] = Supplementary Table 2, normalized to Lundbeck Cmp 1a, read-out: Emax (%) IP1
Compound,EC50 [1] [nM],Emax [18] [%],IP1 response (% of Cmp 1a) [2],IP1 response (% of Cmp 1a) [3],IP1 response (% of Cmp 1a) [4],IP1 response (% of Cmp 1a) [5],IP1 response (% of Cmp 1a) [6],IP1 response (% of Cmp 1a) [7],IP1 response (% of Cmp 1a) [8],IP1 response (% of Cmp 1a) [9],IP1 response (% of Cmp 1a) [10],IP1 response (% of Cmp 1a) [11],IP1 response (% of Cmp 1a) [12],IP1 response (% of Cmp 1a) [13],IP1 response (% of Cmp 1a) [14],IP1 response (% of Cmp 1a) [15],IP1 response (% of Cmp 1a) [16],IP1 response (% of Cmp 1a) [17],other results
"COc1cc(OC)cc(C(=O)NNC(=O)Nc2cccc3ccccc23)c1 [Lundbeck Cmp 1a, reference compound]",501,–,68 % of Cmp 1a and 118 % of Cmp 1a and 94 % of Cmp 1a and 117 % of Cmp 1a and 98 % of Cmp 1a and 86 % of Cmp 1a and 109 % of Cmp 1a,78 % of Cmp 1a and 115 % of Cmp 1a and 96 % of Cmp 1a and 112 % of Cmp 1a and 133 % of Cmp 1a and 94 % of Cmp 1a and 86 % of Cmp 1a and 118 % of Cmp 1a,88 % of Cmp 1a and 100 % of Cmp 1a and 81 % of Cmp 1a and 120 % of Cmp 1a and 61 % of Cmp 1a and 70 % of Cmp 1a and 104 % of Cmp 1a,58 % of Cmp 1a and 80 % of Cmp 1a and 57 % of Cmp 1a and 63 % of Cmp 1a and 85 % of Cmp 1a and 49 % of Cmp 1a and 68 % of Cmp 1a and 66 % of Cmp 1a,29 % of Cmp 1a and 32 % of Cmp 1a and 26 % of Cmp 1a and 50 % of Cmp 1a and 44 % of Cmp 1a and 31 % of Cmp 1a and 21 % of Cmp 1a,7.48 % of Cmp 1a and 13 % of Cmp 1a and 2.79 % of Cmp 1a and 11 % of Cmp 1a and 21 % of Cmp 1a and 9 % of Cmp 1a and 3.75 % of Cmp 1a and 17 % of Cmp 1a,6 % of Cmp 1a and 4.58 % of Cmp 1a and 1.86 % of Cmp 1a and 3 % of Cmp 1a and 16 % of Cmp 1a and 1.22 % of Cmp 1a and 0.482 % of Cmp 1a and 2.32 % of Cmp 1a,1.17 % of Cmp 1a and 1.86 % of Cmp 1a and 0.194 % of Cmp 1a and 1 % of Cmp 1a and 1.43 % of Cmp 1a and -8 % of Cmp 1a and -2.66 % of Cmp 1a and -4 % of Cmp 1a,98 % of Cmp 1a and 68 % of Cmp 1a and 86 % of Cmp 1a and 109 % of Cmp 1a,133 % of Cmp 1a and 94 % of Cmp 1a and 86 % of Cmp 1a and 118 % of Cmp 1a,120 % of Cmp 1a and 61 % of Cmp 1a and 70 % of Cmp 1a and 104 % of Cmp 1a,85 % of Cmp 1a and 49 % of Cmp 1a and 68 % of Cmp 1a and 66 % of Cmp 1a,50 % of Cmp 1a and 44 % of Cmp 1a and 31 % of Cmp 1a and 21 % of Cmp 1a,21 % of Cmp 1a and 9 % of Cmp 1a and 3.75 % of Cmp 1a and 17 % of Cmp 1a,16 % of Cmp 1a and 1.22 % of Cmp 1a and 0.482 % of Cmp 1a and 2.32 % of Cmp 1a,1.43 % of Cmp 1a and -8 % of Cmp 1a and -2.66 % of Cmp 1a and -4 % of Cmp 1a,Emax (read-out: Emax (%) IP1): 101 ± 12%
"COc1ccccc1-c1nc(CC(=O)NC(C)c2ccccc2)no1 (stereo not drawn) [Compound 1.2, COC1=C(C2=NC(CC(NC(C3=CC=CC=C3)C)=O)=NO2)C=CC=C1]",501,100 ± 9,–,–,–,–,–,–,–,–,124 % of Cmp 1a and 88 % of Cmp 1a and 75 % of Cmp 1a and 93 % of Cmp 1a,116 % of Cmp 1a and 87 % of Cmp 1a and 73 % of Cmp 1a and 117 % of Cmp 1a,100 % of Cmp 1a and 64 % of Cmp 1a and 57 % of Cmp 1a and 96 % of Cmp 1a,93 % of Cmp 1a and 47 % of Cmp 1a (2×) and 64 % of Cmp 1a,57 % of Cmp 1a and 45 % of Cmp 1a and 31 % of Cmp 1a and 51 % of Cmp 1a,15 % of Cmp 1a and 18 % of Cmp 1a and 6 % of Cmp 1a and 14 % of Cmp 1a,15 % of Cmp 1a and 11 % of Cmp 1a and -2 % of Cmp 1a and 7.38 % of Cmp 1a,2 % of Cmp 1a and -5.58 % of Cmp 1a and -11 % of Cmp 1a and 6.5 % of Cmp 1a,–
"Cc1noc(C(C)NC(=O)Nc2cccc(-c3ccccc3)c2)n1 (stereo not drawn) [Compound 3, CC(NC(=O)NC=1C=CC=C(C1)C=2C=CC=CC2)C3=NC(C)=NO3]",–,–,41 % of Cmp 1a and 46 % of Cmp 1a and 42 % of Cmp 1a,22 % of Cmp 1a and 29 % of Cmp 1a and 28 % of Cmp 1a,8 % of Cmp 1a and 12 % of Cmp 1a and 10 % of Cmp 1a,0.417 % of Cmp 1a and 2.14 % of Cmp 1a and 6 % of Cmp 1a,-2.63 % of Cmp 1a and 1.42 % of Cmp 1a and -1.19 % of Cmp 1a,-0.0724 % of Cmp 1a and 2 % of Cmp 1a and 0.325 % of Cmp 1a,-1.11 % of Cmp 1a and -1.52 % of Cmp 1a and 2 % of Cmp 1a,-0.434 % of Cmp 1a and 0.295 % of Cmp 1a and 1.29 % of Cmp 1a,–,–,–,–,–,–,–,–,EC50 (read-out: pEC50 IP1 (converted)): 50100 nM
"Cc1cc(-c2nc(CC(=O)NC(C)c3ccccc3)no2)n(C)n1 (stereo not drawn) [Compound 1.16, CC(C1=CC=CC=C1)NC(CC2=NOC(C3=CC(C)=NN3C)=N2)=O]",2510,118 ± 5,–,–,–,–,–,–,–,–,95 % of Cmp 1a and 98 % of Cmp 1a and 122 % of Cmp 1a and 128 % of Cmp 1a,115 % of Cmp 1a and 88 % of Cmp 1a and 90 % of Cmp 1a and 87 % of Cmp 1a,53 % of Cmp 1a and 54 % of Cmp 1a and 79 % of Cmp 1a and 67 % of Cmp 1a,44 % of Cmp 1a and 38 % of Cmp 1a (2×) and 47 % of Cmp 1a,8 % of Cmp 1a and 17 % of Cmp 1a and 10 % of Cmp 1a and 15 % of Cmp 1a,-3.74 % of Cmp 1a and -1.83 % of Cmp 1a and 5.46 % of Cmp 1a and 8 % of Cmp 1a,-0.538 % of Cmp 1a and 1 % of Cmp 1a and -0.216 % of Cmp 1a and 6 % of Cmp 1a,-11 % of Cmp 1a and -1 % of Cmp 1a and 0.939 % of Cmp 1a and 0.124 % of Cmp 1a,–
"CC(NC(=O)CNC(=O)c1cccc(Cl)c1)c1ccccc1 (stereo not drawn) [JNJ-63533054, reference compound]",–,–,132 % of Cmp 1a and 117 % of Cmp 1a and 179 % of Cmp 1a and 200 % of Cmp 1a,149 % of Cmp 1a and 120 % of Cmp 1a and 161 % of Cmp 1a and 172 % of Cmp 1a,112 % of Cmp 1a and 93 % of Cmp 1a and 135 % of Cmp 1a and 165 % of Cmp 1a,129 % of Cmp 1a and 86 % of Cmp 1a and 138 % of Cmp 1a and 168 % of Cmp 1a,93 % of Cmp 1a (2×) and 74 % of Cmp 1a and 97 % of Cmp 1a,56 % of Cmp 1a and 47 % of Cmp 1a and 72 % of Cmp 1a and 84 % of Cmp 1a,40 % of Cmp 1a and 23 % of Cmp 1a and 36 % of Cmp 1a and 37 % of Cmp 1a,24 % of Cmp 1a and 9 % of Cmp 1a and 8 % of Cmp 1a and 2 % of Cmp 1a,–,–,–,–,–,–,–,–,"Emax (Supplementary Table 4, normalized to Lundbeck Cmp 1a, read-out: Emax (%), IP1 accumulation): 157 ± 16%; EC50 (Supplementary Table 4, read-out: pEC50, IP1 accumulation (converted)): 200 nM"
